Experimental data: patent publication US20100286215A1, “BIS-AROMATIC COMPOUNDS USEFUL IN THE TREATMENT OF INFLAMMATION” (BIS-AROMATIC COMPOUNDS USEFUL IN THE TREATMENT OF …, priority 2007, published 2010)

Target: T1, Recombinant human LTC4 synthase (Homo sapiens, UniProt Q16873)
T1 construct: made in house; host or cells: Pichia pastoris ('Piccia pastoralis' [sic])
T1 sequence (Q16873 1-150): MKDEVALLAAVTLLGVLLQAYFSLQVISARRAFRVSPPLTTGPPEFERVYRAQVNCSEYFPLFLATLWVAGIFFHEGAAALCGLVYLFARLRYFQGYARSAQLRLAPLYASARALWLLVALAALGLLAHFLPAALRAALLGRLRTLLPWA
Experiment: LTC4 synthase assay (conversion of LTA4 methyl ester to LTC4 methyl ester, HPLC)
Format: biochemical
Conditions: not given
Description: In the assay LTC4 synthase catalyses the reaction where the substrate LTA4 methyl ester is converted to LTC4 methyl ester. Recombinant human LTC4 synthase is expressed in Piccia pastoralis and the purified enzyme is dissolved in 25 mM Tris-buffer pH 7.8 and stored at −20° C. The assay is performed in phosphate buffered saline (PBS) pH 7.4, supplemented with 5 mM glutathione (GSH). The reaction is terminated by addition of acetonitrile/MeOH/acetic acid (50/50/1). The assay is performed at rt in 96-well plates. Analysis of the formed LTC4 methyl ester is performed with reversed phase HPLC (Waters 2795 utilizing an Onyx Monolithic C18 column). The mobile phase consists of acetonitrile/MeOH/H2O (32.5/30/37.5) with 1% acetic acid pH adjusted with NH3 to pH 5.6, and absorbance measured at 280 nm with a Waters 2487 UV-detector.
The following is added chronologically to each well: • 1. 50 μl assay buffer, PBS with 5 mM GSH. • 2. 0.5 μl inhibitor in DMSO. • 3. 2 μl LTC4 synthase in PBS. The total protein concentration in this solution is 0.025 mg/ml. Incubation of the plate at room temperature for 10 minutes. • 4. 0.5 μl LTA4 methyl ester. Incubation of the plate at rt for 1 min. • 5. 50 μl stop solution. 80 μl of the incubation mixture is analysed with HPLC.

IC50 | Structure (SMILES)
258 nM | CC(C)Oc1ccc(Nc2ccc(C(=O)c3ccc(Nc4ccc(OC(C)C)cc4)c(C(=O)O)c3)cc2C(=O)O)cc1 [Example 2, 2-(4-isopropoxyphenylamino)-5-(4-(4-isopropoxyphenylamino)-3-carboxyphenylcarbonyl)benzoic acid]

Same assay, conditions: inhibitor concentration 10 μM; read-out: Percantage Inhibition at 10 μM (unless specified otherwise)

Structure (SMILES) | inhibition at 10 µM
O=C(Nc1ccc(C(F)(F)F)cc1)Nc1ccc(C(=O)c2ccc(NC(=O)Nc3ccc(C(F)(F)F)cc3)c(C(=O)O)c2)cc1C(=O)O [Example 6, 2-[3-(4-trifluoromethylphenyl)-ureido]-5-{3-carboxy-4-[3-(4-trifluoromethylphenyl)ureido]-benzoyl}benzoic acid] | 95%
CC(C)Oc1ccc(Nc2ccc(C(=O)c3ccc(Nc4ccc(OC(C)C)cc4)c(C(=O)O)c3)cc2C(=O)O)cc1 [Example 2, 2-(4-isopropoxyphenylamino)-5-(4-(4-isopropoxyphenylamino)-3-carboxyphenylcarbonyl)benzoic acid] | 99%
CCCCOc1ccc(S(=O)(=O)Nc2ccc(C(=O)c3ccc(N(C)c4ccc(F)c(F)c4)c(C(=O)O)c3)cc2)cc1 [Example 17, 5-(4-(4-butoxyphenylsulfonamido)benzoyl)-2-((3,4-di-fluorophenyl)(methyl)amino)benzoic acid] | 99%

The next lines start with the values.

inhibition at 10 µM | Structure (SMILES)
84% | O=C(c1ccc(Nc2ccc(F)c(F)c2)cc1)c1ccc(Nc2ccc(F)c(F)c2)c(C(=O)O)c1 [5:3, 2-(3,4-Difluoro-phenylamino)-5-[4-(3,4-difluoro-phenylamino)-benzoyl]-benzoic acid]
68% | CC(C)Oc1ccc(C(=O)Nc2ccc(C(=O)c3ccc(Nc4ccc(F)c(F)c4)c(C(=O)O)c3)cc2)cc1 [Example 15, 2-(3,4-difluorophenylamino)-5-(4-(4-isopropoxybenzamido)benzoyl)benzoic acid]
62% | CN(c1ccc(Cl)cc1)c1ccc(C(=O)c2ccc(Oc3ccc(Cl)cc3)c(C(=O)O)c2)cc1 [6:1, 2-(4-Chloro-phenoxy)-5-{4-[(4-chloro-phenyl)-methyl-amino]-benzoyl}-benzoic acid]
97% | O=C(c1ccc(Nc2ccc(F)c(F)c2)cc1)c1ccc(Oc2ccc(F)c(F)c2)c(C(=O)O)c1 [8:1, 2-(3,4-Difluoro-phenoxy)-5-[4-(3,4-difluoro-phenylamino)-benzoyl]-benzoic acid]
